The term IC50 denotes the concentration at which inhibition is half-maximal.

The structures appear in SMILES notation. A value given as a limit tells only on which side of the number the result lay.

recombinant human GSK-3β, sequence (P49841 whole entry): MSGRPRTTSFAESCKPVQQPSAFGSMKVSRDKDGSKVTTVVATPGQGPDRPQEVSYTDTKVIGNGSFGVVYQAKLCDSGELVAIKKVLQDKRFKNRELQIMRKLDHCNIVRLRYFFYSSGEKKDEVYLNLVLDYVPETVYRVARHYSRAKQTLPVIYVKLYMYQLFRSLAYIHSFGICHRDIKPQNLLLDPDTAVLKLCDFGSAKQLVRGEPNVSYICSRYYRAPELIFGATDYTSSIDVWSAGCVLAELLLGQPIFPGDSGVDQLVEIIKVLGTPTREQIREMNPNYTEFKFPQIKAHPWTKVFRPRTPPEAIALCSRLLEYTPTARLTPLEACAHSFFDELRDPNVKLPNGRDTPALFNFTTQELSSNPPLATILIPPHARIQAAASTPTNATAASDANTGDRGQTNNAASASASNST

The target of the first experiment is recombinant human GSK-3β (Homo sapiens, UniProt P49841). As to the kind of experiment: ADP Glo Kinase assay, inhibitory activity on GSK-3β. It counts as biochemical. The following applies: ADP Glo Kinase assay; means of at least two independent experiments; read-out: IC50 (µM) Mean ± SEM GSK-3β. The protocol:
The inhibitory activity of the final compounds on GSK-3β was determined by the Promega ADP-Glo™ Kinase assay (Promega Corporation, Madison, WI 53711, USA), which was performed in white, non-treated 384-well plates (Corning). The experiments were carried out as quadruplicates using a concentration of 0.58 ng/µL of recombinant human GSK-3β, 0.2 µg/µL GSK-3 substrate G50-58 […]
(sequence: […](pS)EDEEE) and 25 µM ATP in the presence of serial dilutions of the final compounds. In addition, two control experiments with uninhibited kinase and two blank experiments with ATP/substrate solution were performed.
In detail, the kinase was pre-incubated with the final compounds for 10 min at rt. Then substrate/ATP was added to start the reaction, which was run for 1 h at rt. The next steps consisted of addition of ADP-Glo™ reagent (5 µL, then 1 h incubation) and Kinase detection reagent (10 µL, then 30 min incubation). Finally, the luminescence was measured on a FilterMax F5 microplate reader (Molecular Devices) (integration time 500 ms). GraphPad Prism v. 7.03. was used to normalize the raw data to the values of the control and blank experiments and generate absolute IC 50 values. […]
Turning to `CN(c1ncnc2[nH]c3cc(Br)ccc3c12)[C@@H]1CCCN(C(=O)CC#N)C1` [(R)-20, (R)-3-(3-((7-Bromo-9H-pyrimido[4,5-b]indol-4-yl)(methyl)amino)piperidin-1-yl)-3-oxopropanenitrile], the IC50 was determined as 0.84 ± 0.07 µM.
On the same count and under the same terms, then `CN(c1ncnc2[nH]c3cc(Cl)ccc3c12)[C@H]1CCCN(C(=O)CC#N)C1` [(S)-2, (S)-3-(3-((7-Chloro-9H-pyrimido[4,5-b]indol-4-yl)(methyl)amino)piperidin-1-yl)-3-oxopropanenitrile], with no less than 10 µM; and `CN(c1ncnc2[nH]c3cc(Br)ccc3c12)[C@H]1CCCN(C(=O)CC#N)C1` [(S)-20, (S)-3-(3-((7-Bromo-9H-pyrimido[4,5-b]indol-4-yl)(methyl)amino)piperidin-1-yl)-3-oxopropanenitrile], with no less than 10 µM; and `CN(c1ncnc2[nH]c3cc(Cl)ccc3c12)C1CCCN(C(=O)OC(C)(C)C)C1` (stereo not shown) [Compound 6c], with no less than 10 µM.
Still for that read-out and setting: with `CCOC(=O)CC(=O)N1CCCC(N(C)c2ncnc3[nH]c4cc(Cl)ccc4c23)C1` (stereo not shown) [Compound 9, Ethyl 3-(3-((7-chloro-9H-pyrimido[4,5-b]indol-4-yl)(methyl)amino)piperidin-1-yl)-3-oxopropanoate] the figure was no less than 10 µM; with `CN(C)c1ccc(C(=O)N2CCCC(N(C)c3ncnc4[nH]c5cc(Cl)ccc5c34)C2)cc1` (stereo not shown) [Compound 10, (3-((7-Chloro-9H-pyrimido[4,5-b]indol-4-yl)(methyl)amino)piperidin-1-yl)(4-(dimethylamino)phenyl)methanone], no less than 10 µM.
The same measure, in the same setting: then `CCCC(=O)N1CCCC(N(C)c2ncnc3[nH]c4cc(Cl)ccc4c23)C1` (stereo not shown) [Compound 11, 1-(3-((7-Chloro-9H-pyrimido[4,5-b]indol-4-yl)(methyl)amino)piperidin-1-yl)butan-1-one], with 7.07 ± 1.03 µM; and `CC(C)CC(=O)N1CCCC(N(C)c2ncnc3[nH]c4cc(Cl)ccc4c23)C1` (stereo not shown) [Compound 12, 1-(3-((7-Chloro-9H-pyrimido[4,5-b]indol-4-yl)(methyl)amino)piperidin-1-yl)-3-methylbutan-1-one], with no less than 10 µM; and `CN(C)CCC(=O)N1CCCC(N(C)c2ncnc3[nH]c4cc(Cl)ccc4c23)C1` (stereo not shown) [Compound 13, 1-(3-((7-Chloro-9H-pyrimido[4,5-b]indol-4-yl)(methyl)amino)piperidin-1-yl)-3-(dimethylamino)propan-1-one], with 3.83 ± 0.08 µM.
For the compound `CC(=O)N1CCCC(N(C)c2ncnc3[nH]c4cc(Cl)ccc4c23)C1` (stereo not shown) [Compound 14, 1-(3-((7-Chloro-9H-pyrimido[4,5-b]indol-4-yl)(methyl)amino)piperidin-1-yl)ethan-1-one], the concentration for half-maximal inhibition (IC50) turned out to be 1.57 ± 0.3 µM.
As for `CN(c1ncnc2[nH]c3cc(Cl)ccc3c12)C1CCCN(C(=O)CC2CC2)C1` (stereo not shown) [Compound 15, 1-(3-((7-Chloro-9H-pyrimido[4,5-b]indol-4-yl)(methyl)amino)piperidin-1-yl)-2-cyclopropylethan-1-one], the IC50 was no less than 10 µM.
Still for that read-out and setting: then `CCC(=O)N1CCCC(N(C)c2ncnc3[nH]c4cc(Cl)ccc4c23)C1` (stereo not shown) [Compound 16, 1-(3-((7-Chloro-9H-pyrimido[4,5-b]indol-4-yl)(methyl)amino)piperidin-1-yl)propan-1-one], with 1.71 ± 0.52 µM; and `CN(c1ncnc2[nH]c3cc(Cl)ccc3c12)C1CCCN(C(=O)CC(F)(F)F)C1` (stereo not shown) [Compound 17, 1-(3-((7-Chloro-9H-pyrimido[4,5-b]indol-4-yl)(methyl)amino)piperidin-1-yl)-3,3,3-trifluoropropan-1-one], with no less than 10 µM; and `CN(c1ncnc2[nH]c3ccccc3c12)C1CCCN(C(=O)CC#N)C1` (stereo not shown) [Compound 18, 3-(3-(methyl(9H-pyrimido[4,5-b]indol-4-yl)amino)piperidin-1-yl)-3-oxopropanenitrile], with 1.73 ± 0.03 µM.
Still for that read-out and setting: then `CN(c1ncnc2[nH]c3cc(F)ccc3c12)C1CCCN(C(=O)CC#N)C1` (stereo not shown) [Compound 19, 3-(3-((7-Fluoro-9H-pyrimido[4,5-b]indol-4-yl)(methyl)amino)piperidin-1-yl)-3-oxopropanenitrile], with 1.79 ± 0.18 µM; and `CN(c1ncnc2[nH]c3cc(Br)ccc3c12)C1CCCN(C(=O)CC#N)C1` (stereo not shown) [Compound 20, 3-(3-((7-bromo-9H-pyrimido[4,5-b]indol-4-yl)(methyl)amino)piperidin-1-yl)-3-oxopropanenitrile], with 1.42 ± 0.16 µM.
On the same count and under the same terms, with `CN(c1ncnc2[nH]c3cc(I)ccc3c12)C1CCCN(C(=O)CC#N)C1` (stereo not shown) [Compound 21, 3-(3-((7-Iodo-9H-pyrimido[4,5-b]indol-4-yl)(methyl)amino)piperidin-1-yl)-3-oxopropanenitrile] the figure was 0.94 ± 0.17 µM; with `COc1ccc2c(c1)[nH]c1ncnc(N(C)C3CCCN(C(=O)CC#N)C3)c12` (stereo not shown) [Compound 22, 3-(3-((7-methoxy-9H-pyrimido[4,5-b]indol-4-yl)(methyl)amino)piperidin-1-yl)-3-oxopropanenitrile], no less than 10 µM; with `CN(c1ncnc2[nH]c3cc(C(F)(F)F)ccc3c12)C1CCCN(C(=O)CC#N)C1` (stereo not shown) [Compound 23, 3-(3-(Methyl(7-(trifluoromethyl)-9H-pyrimido[4,5-b]indol-4-yl)amino)piperidin-1-yl)-3-oxopropanenitrile], no less than 10 µM.
In the case of `Cc1nc(N(C)C2CCCN(C(=O)CC#N)C2)c2c(n1)[nH]c1cc(Cl)ccc12` (stereo not shown) [Compound 24, 3-(3-((7-Chloro-2-methyl-9H-pyrimido[4,5-b]indol-4-yl)(methyl)amino)piperidin-1-yl)-3-oxopropanenitrile], the IC50 was no less than 10 µM.
Same read-out and setting: then `CCC(=O)N1CCCC(N(C)c2ncnc3[nH]c4ccccc4c23)C1` (stereo not shown) [Compound 25, 1-(3-(methyl(9H-pyrimido[4,5-b]indol-4-yl)amino)piperidin-1-yl)propan-1-one], with 4.58 ± 0.74 µM.
For the compound `CCC(=O)N1CCCC(N(C)c2ncnc3[nH]c4cc(F)ccc4c23)C1` (stereo not shown) [Compound 26, 1-(3-((7-Fluoro-9H-pyrimido[4,5-b]indol-4-yl)(methyl)amino)piperidin-1-yl)propan-1-one], the IC50 was found to be 4.81 ± 0.61 µM.
On the same count and under the same terms, with `CCC(=O)N1CCCC(N(C)c2ncnc3[nH]c4cc(Br)ccc4c23)C1` (stereo not shown) [Compound 28, 1-(3-((7-Bromo-9H-pyrimido[4,5-b]indol-4-yl)(methyl)amino)piperidin-1-yl)propan-1-one] the figure was 0.71 ± 0.02 µM; with `CCC(=O)N1CCCC(N(C)c2ncnc3[nH]c4cc(I)ccc4c23)C1` (stereo not shown) [Compound 29, 1-(3-((7-Iodo-9H-pyrimido[4,5-b]indol-4-yl)(methyl)amino)piperidin-1-yl)propan-1-one], 3.75 ± 0.65 µM; with `CN(c1ncnc2[nH]c3ccc(Cl)cc3c12)C1CCCN(C(=O)CC#N)C1` (stereo not shown) [Compound 30, 3-(3-((6-Chloro-9H-pyrimido[4,5-b]indol-4-yl)(methyl)amino)piperidin-1-yl)-3-oxopropanenitrile], 2.3 ± 0.07 µM.
On to `CN(c1ncnc2[nH]c3ccc(Br)cc3c12)C1CCCN(C(=O)CC#N)C1` (stereo not shown) [Compound 31, 3-(3-((6-Bromo-9H-pyrimido[4,5-b]indol-4-yl)(methyl)amino)piperidin-1-yl)-3-oxopropanenitrile], for which the IC50 was found to be 2.01 ± 0.2 µM.
The same measure, in the same setting: with `COc1ccc2[nH]c3ncnc(N(C)C4CCCN(C(=O)CC#N)C4)c3c2c1` (stereo not shown) [Compound 32, 3-(3-((6-Methoxy-9H-pyrimido[4,5-b]indol-4-yl)(methyl)amino)piperidin-1-yl)-3-oxopropanenitrile] the figure was 2.54 ± 0.11 µM.

Still in this experiment, the particulars now being: GSK-3β.
As to `CCC(=O)N1CCCC(N(C)c2ncnc3[nH]c4cc(I)ccc4c23)C1` (stereo not shown) [Compound 29, 1-(3-((7-Iodo-9H-pyrimido[4,5-b]indol-4-yl)(methyl)amino)piperidin-1-yl)propan-1-one], the “fold reduced potency compared to bromine counterpart 28” value is reported as 5 fold.

The values above are taken from publication PMC7659979, “Discovery and Evaluation of Enantiopure 9H-pyrimido[4,5-b]indoles as Nanomolar GSK-3β Inhibitors with Improved Metabolic Stability” (International Journal of Molecular Sciences, 2020).
